# Data: patent US9957231B2, “Iodine(II)-mediated radiofluorination” (The General Hospital Corporation, priority 2014, dated 2018)
# Assays:
# [1] = Stability of biphenyl spiroiodine(III) ylide precursors; type: physicochemical
# Description: Experiments with derivatives of Meldrum's acid 8a and barbituric acid 9a, based on a challenging electron-neutral biphenyl substrate, provided radiochemical conversions of 47% and 53%, respectively. Analogs incorporating substituents on the nitrogen atoms of […] were relatively unstable at room temperature, and analogues with alkyl groups other than methyl on the quaternary carbon of diesters 9b-d were not crystalline. […] Cyclobutyl 10b and cyclopentyl 10c groups provided increased conversions, 70% and 85%, respectively.
# [2] = pH assay of the [^18F]FPEB dose with pH indicator paper; type: physicochemical; conditions: formulated dose, n = 3
# Protocol: The pH of [^18F]FPEB was determined by applying a few drops of the dose to pH indicator paper. Match the reference color and the pH value conformed to our release specifications (pH=4.5-8.5).
# [3] = Sterility testing in TSB and FTM media; conditions: TSB 20-25° C., FTM 30-35° C., 14 days
# Protocol: Sterility testing was performed post-release and must be started within 30 hours from end of synthesis. [^18F]FPEB sample was inoculated into Trypitcase Soy Broth (TSB) and Fluid Thioglycollate Medium (FTM) media tubes. TSB tubes were incubated at 20-25° C. and FTM tubes were incubated at 30-35° C. for 14 days and must be free of culture growth after 14 days.
compound,measurement,setting,value
"O=C1OC2(CCCCC2)OC(=O)C1=Ic1ccc(-c2ccccc2)cc1 [Example 10a, 1,5-dioxaspiro[5.5]undecane-2,4-dion-[1,1′biphenyl-4-iodonium]ylide]",stability of precursor,[1]; room temperature / solid state,stable crystalline solid
"O=C1OC2(CCCC2)OC(=O)C1=Ic1ccc(-c2ccccc2)cc1 [Example 10c, 6,10-dioxaspiro[4.5]decane-7,9-dion-[1,1′-biphenyl-4-iodonium]ylide]",thermal stability under the radiolabelling conditions,"[1]; DMF, 120° C., 10 min",good thermal stability
"N#Cc1cc(C#Cc2ccccn2)cc(I=C2C(=O)OC3(CCCC3)OC2=O)c1 [Example 31, 3-((7,9-dioxo-6,10-dioxaspiro[4.5]decan-8-ylidene)-1.3-iodanyl)-5-(pyridin-2-ylethynyl)benzonitrile]",melting point,,145 to 150 °C (dec.)
"NC(=O)c1cc(F)cc(C#Cc2ccccn2)c1 [Example 32, 3-fluoro-5-(pyridin-2-ylethynyl)benzamide]",melting point,,175 to 176 °C
"N#Cc1cc([18F])cc(C#Cc2ccccn2)c1 [[^18F]FPEB, [^18F]3-fluoro-5-(pyridin-2-ylethynyl)benzonitrile]",pH Assay,[2],5-5.5
same,Sterility Testing,[3],No evidence of growth at 14 days post
